# Experimental data taken from PubChem BioAssay AID1918944 (Molecular Pharmacology Branch, DTP, NCI, 2023).
# pIC50: −log10 of the molar value. Where “and” joins values, the source holds several entries; their conditions need not be identical. Equal entries are not always repeated.
# Test system: 786-0 complex spheroid viability
# Assay: Anticancer human tumor 786-0 cell line growth inhibition;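 further: spheroids exposed to agents for seven days before readout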
# Conditions: for viability, T/C: stronger effect = lower value
# Description: Multicellular complex tumor spheroid response to LSD1 Inhibitor Iadademstat in combination with a variety of drugs and investigational agents in selected tumor cell lines
# The current study was undertaken to assess response to LSD1 inhibitors in combination with standard-of-care drugs and investigational agents in solid tumor complex spheroid models as well as in the K-562 leukemia. Complex spheroids include a stromal component modeled by human endothelial cells (HUVEC) and fibroblasts modeled by human mesenchymal stem cells (MSCs). The concentration ranges selected for each drug and investigational agent were based upon clinically achievable concentrations if the clinical Cmax of the agent was known.
# Compounds. The drugs and investigational agents used in this study are listed on Table 1. All of the agents used, including staurosporine (NSC755774) and gemcitabine (NSC613327), were obtained from the Developmental Therapeutics Program, NCI. FDA-approved anticancer drugs are available from the NCI at http://dtp.nci.nih.gov/branches/dscb/oncology_drugset_explanation.html. Drugs and investigational agents were >95% pure by proton nuclear magnetic resonance (NMR) and liquid chromatography/mass spectrometry (LC/MS). Stock solutions were prepared at 400x in DMSO, stored at -70 degrees C, and diluted in fresh medium prior to their use. The final concentration of DMSO in cell culture wells never exceeded 0.25% (v/v). The FDA-approved anticancer drug set is available from the Developmental Therapeutics Program at https://dtp.cancer.gov/organization/dscb/obtaining/available_plates.htm. All drugs and investigational agents were tested over a range starting from a high concentration at or near the clinical Cmax and decreasing in half-log increments. If the clinical Cmax for an agent had not been determined, the highest concentration tested was 10 microM.
# Cell Lines. The patient-derived cancer cell (PDC) lines: 292921-168-R-J2-PDC, K24384-001-R-PDC, and 521955-158-R2-J5-PDC pancreatic carcinomas, 556581-035-R-J1 ovarian carcinoma, 324938-238-R-J1-PDC, 855422-203-R-J1-PDC and 883617-216-R-J1-PDC urothelial bladder carcinomas, 743489-274-T-PDC renal cell carcinoma, 138582-R-J1 Merkel cell tumor, K60290-347-R-J1 and K57222-313-R-J1-PDC glioblastomas, 653999-131-R-J2-PDC, LG0703-F948-PDC, and 349418-098-R-PDC non-small cell lung carcinomas, 885512-296-R-J2-PDC, 171881-019-R-J1-PDC breast carcinomas and 186277-243-T-J2-PDC and 233499-124-R-J2-PDC colon carcinomas were obtained from the NCI Patient-Derived Models Repository (PDMR, https://pdmr.cancer.gov). The established cell lines NCI/ADR-RES (RRID:CVCL_14520 and OVCAR-5 (RRID:CVCL_1628) ovarian carcinomas, 786-O (RRID:CVCL_1051) and A498 (RRID:CVCL_A498) renal cell carcinoma, NCI-H211 (ATCC, cat. CRL-5824; RRID:CVCL_1529), NCI-H196 (ATCC, cat. CRL-5823, RRID:CVCL_1509), SW 1271 (ATCC, cat. CRL-2177, RRID:CVCL_1716) and NCI-H1876 (ATCC, cat. CRL-5902, RRID:CVCL_1503) small cell lung carcinomas, MDA-MB-231 (RRID:CVCL_0062) and MDA-MB-468 (RRID:CVCL_0419)breast carcinomas (10-12). Pooled donor human umbilical vein endothelial cells (HUVEC, Lonza, cat. CC-2519) and human mesenchymal stem cells (hMSC, Lonza, cat. PT-2501) were purchased from Lonza (Walkersville, MD).
# Cell Culture. All cells were maintained in an incubator at 37 degrees C and 5% CO2 with 95% humidity. The PDC lines were cultured according to standard operating procedures established by the NCI PDMR (https://pdmr.cancer.gov). Briefly all PDCs were thawed and cultured in Matrigel-coated flasks prepared with a working solution of 1X Ham's F-12 nutrient mix, without supplementation (Invitrogen, Waltham, MA, cat. 11765054), 100 U/mL penicillin-streptomycin (Invitrogen, cat. 15140122), and 2.5% Matrigel (Corning Inc., Corning, NY, cat. 354248) for the first three passages. […]
smiles,measurement,setting,value
Nc1ncn(C2CC(O)C(CO)O2)c(=O)n1 (configuration not stated),"viability, T/C",compound 0.00316 µM,101% and 107%
same,"viability, T/C",compound 0.01 µM,92.9% and 108%
same,"viability, T/C",compound 0.0316 µM,87.4% and 97.4%
same,"viability, T/C",compound 0.1 µM,77.8% and 93.8%
same,"viability, T/C",compound 0.316 µM,68.4% and 82.3%
same,"viability, T/C",compound 1 µM,53.7% and 76.3%
same,pIC50,curve of compound,< 6.00
CC1COCCN1c1cc(C2(S(C)(=N)=O)CC2)nc(-c2ccnc3[nH]ccc23)n1 (configuration not stated),"viability, T/C",compound 0.0316 µM,101% and 103%
same,"viability, T/C",compound 0.1 µM,99.8% and 99.9%
same,"viability, T/C",compound 0.316 µM,91.4% and 99%
same,"viability, T/C",compound 1 µM,46.4% and 56.3%
same,"viability, T/C",compound 3.16 µM,24.9% and 32.6%
same,"viability, T/C",compound 10 µM,12.3% and 18.9%
same,pIC50,curve of compound,6.02 and 5.86
NC1CCC(NC2CC2c2ccccc2)CC1 (configuration not stated),"viability, T/C",compound 0.1 µM,114% [middle of 25 runs]
same,"viability, T/C",compound 0.316 µM,113% and 132%
same,"viability, T/C",compound 1 µM,112% [middle of 25 runs]
same,"viability, T/C",compound 3.16 µM,106% [middle of 25 runs]
same,"viability, T/C",compound 10 µM,85.4% [middle of 23 runs]
same,pIC50,"compound alone, run of 11/29/2021",< 5.00
O=C(C=Cc1cccc(S(=O)(=O)Nc2ccccc2)c1)NO,"viability, T/C",compound 0.00949 µM,96.4% and 90.1%
same,"viability, T/C",compound 0.03 µM,94.9% and 96.3%
same,"viability, T/C",compound 0.0949 µM,98.5% and 102%
same,"viability, T/C",compound 0.3 µM,93.5% and 98.6%
same,"viability, T/C",compound 0.949 µM,48.6% and 73.1%
same,"viability, T/C",compound 3 µM,6.1% and 9.6%
same,pIC50,curve of compound,6.04 and 5.84
CC[C@@]1(O)C(=O)OCc2c1cc1n(c2=O)Cc2cc3c(CN(C)C)c(O)ccc3nc2-1 + NC1CC1c1ccc(-c2cccc(O)c2)cc1,pIC50,"curve of first compound, second compound 0.1 µM",8.30
same,pIC50,"curve of first compound, second compound 0.316 µM",8.31
same,pIC50,"curve of first compound, second compound 1 µM",8.31
same,pIC50,"curve of first compound, second compound 3.16 µM",8.33
same,pIC50,"curve of first compound, second compound 10 µM",8.40
same,"viability, T/C","second compound 0.1 µM, first compound 0.000316 µM",112%
same,"viability, T/C","second compound 0.1 µM, first compound 0.001 µM",109%
same,"viability, T/C","second compound 0.1 µM, first compound 0.00316 µM",74.6%
same,"viability, T/C","second compound 0.1 µM, first compound 0.01 µM",13.2%
same,"viability, T/C","second compound 0.1 µM, first compound 0.0316 µM",6.23%
same,"viability, T/C","second compound 0.1 µM, first compound 0.1 µM",2.94%
same,"viability, T/C","second compound 0.316 µM, first compound 0.000316 µM",109%
same,"viability, T/C","second compound 0.316 µM, first compound 0.001 µM",105%
same,"viability, T/C","second compound 0.316 µM, first compound 0.00316 µM",73.6%
same,"viability, T/C","second compound 0.316 µM, first compound 0.01 µM",10.7%
same,"viability, T/C","second compound 0.316 µM, first compound 0.0316 µM",4.65%
same,"viability, T/C","second compound 0.316 µM, first compound 0.1 µM",3.46%
same,"viability, T/C","second compound 1 µM, first compound 0.000316 µM",119%
same,"viability, T/C","second compound 1 µM, first compound 0.001 µM",109%
same,"viability, T/C","second compound 1 µM, first compound 0.00316 µM",73.4%
same,"viability, T/C","second compound 1 µM, first compound 0.01 µM",10.8%
same,"viability, T/C","second compound 1 µM, first compound 0.0316 µM",4.54%
same,"viability, T/C","second compound 1 µM, first compound 0.1 µM",2.99%
same,"viability, T/C","second compound 3.16 µM, first compound 0.000316 µM",107%
same,"viability, T/C","second compound 3.16 µM, first compound 0.001 µM",107%
same,"viability, T/C","second compound 3.16 µM, first compound 0.00316 µM",70%
same,"viability, T/C","second compound 3.16 µM, first compound 0.01 µM",10.8%
same,"viability, T/C","second compound 3.16 µM, first compound 0.0316 µM",5.39%
same,"viability, T/C","second compound 3.16 µM, first compound 0.1 µM",2.22%
same,"viability, T/C","second compound 10 µM, first compound 0.000316 µM",104%
same,"viability, T/C","second compound 10 µM, first compound 0.001 µM",109%
same,"viability, T/C","second compound 10 µM, first compound 0.00316 µM",61%
same,"viability, T/C","second compound 10 µM, first compound 0.01 µM",8.93%
same,"viability, T/C","second compound 10 µM, first compound 0.0316 µM",3.25%
same,"viability, T/C","second compound 10 µM, first compound 0.1 µM",2.9%
